Laboratory results reported in the supplement of paper PMC11208160.

Assay: recombinant barcode read abundance after kanamycin selection (control-corrected) (log10(CPM+1)); higher = more efficient recombination; sequences stand for … in AGTGCAGAGAAAATCGGCCAGTTTTCTCTGCCTGCAGTCCGCATGCCGT…AGATTTATGCAGCGGACTGCCTTTCTCCCAAAGTGATAAACCGGACAGTATCATGGACCGGTTTTCCCGGTAATCCGTATTTGCAAGGTTGGTTTCACT; site = the 11-nt target
Outline: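 Reported as log10(CPM+1), each value stands for recombination efficiency. That efficiency is the averaged, control-corrected counts per million of barcodes found at recombinant junctions. Cells from a pooled E. coli library pairing targets with IS621 bridge RNA target-binding loops were plated twice on chloramphenicol/ampicillin LB agar (control) and twice on chloramphenicol/ampicillin/kanamycin with 0.1 mM IPTG.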
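Also: IS621 recombinase and bridge RNA in Escherichia coli cells.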

| Sequence | recombinant barcode read abundance (log10) |
| --- | --- |
| ATAAGGCCTTGGGTTCTAACCTGTTGCCT (site ATAAAGCCTAG) | 0.102 |
| ATAAGGCCTTGGGTTCTAACCTGTTGCCT (site ATAAGGCCTAG) | 0.154 |
| ATAGAATCTTGGGTTCTAACCTGTTGCTC (site ATAGAATCTGA) | 1.96 |
| ATAGAATCTTGGGTTCTAACCTGTTGCTC (site TGCCTGCCTCT) | 0.204 |
| ATAGACCCTTGGGTTCTAACCTGTTGCCT (site ATAGACCCTAG) | 2.36 |
| ATAGACCCTTGGGTTCTAACCTGTTGCCT (site CTAGACCCTAG) | 0.918 |
| ATAGACCCTTGGGTTCTAACCTGTTGCCT (site GTAGACCCTAG) | 0.599 |
| ATAGACCCTTGGGTTCTAACCTGTTGCCT (site TTAGACCCTAG) | 1.49 |
| ATAGAGTCTTGGGTTCTAACCTGTTGCCT (site ACAGATTCTAG) | 0.143 |
| ATAGAGTCTTGGGTTCTAACCTGTTGCCT (site ATAGAGTCTAG) | 2.64 |
| ATAGGGTCTTGGGTTCTAACCTGTTGCCT (site AAAGGGTCTAG) | 1.04 |
| ATAGGGTCTTGGGTTCTAACCTGTTGCCT (site ACAGGGTCTAG) | 1.85 |
| ATAGGGTCTTGGGTTCTAACCTGTTGCCT (site AGAGGGTCTAG) | 0.211 |
| ATAGGGTCTTGGGTTCTAACCTGTTGCCT (site ATAGGGTCTAG) | 2.5 |
| ATAGGTCCTTGGGTTCTAACCTGTTGCCT (site ATAGGTCCTAG) | 1.58 |
| ATAGGTCCTTGGGTTCTAACCTGTTGCCT (site ATCGGTCCTAG) | 0.202 |
| ATAGGTCCTTGGGTTCTAACCTGTTGCCT (site ATGGGTCCTAG) | 0.189 |
| ATAGGTCCTTGGGTTCTAACCTGTTGCCT (site ATTGGTCCTAG) | 0.309 |
| ATATCAACTTGGGTTCTAACCTGTTGCCG (site ATATCAACTCG) | 0.625 |
| ATATCAACTTGGGTTCTAACCTGTTGCCG (site TCTGTGTCTTA) | 0.0298 |
| ATATCTTCTTGGGTTCTAACCTGTTGCCT (site ATATCTTCTAG) | 1.03 |
| ATATCTTCTTGGGTTCTAACCTGTTGCCT (site ATTTCTTCTAG) | 0.578 |
| ATATGATCTTGGGTTCTAACCTGTTGCCT (site ATATGATCTAG) | 1.43 |
| ATATGATCTTGGGTTCTAACCTGTTGCCT (site ATATTATCTTG) | 0.145 |
| ATATGTACTTGGGTTCTAACCTGTTGCCA (site ATATGTACTCG) | 0.22 |
| ATATGTACTTGGGTTCTAACCTGTTGCCA (site ATATGTACTTG) | 0.733 |

| Sequence | recombinant barcode read abundance (log10) |
| --- | --- |
| ATATGTCCTTGGGTTCTAACCTGTTGCAA (site ATATGTCCTTT) | 0.715 |
| ATATGTCCTTGGGTTCTAACCTGTTGCAA (site GGTGCATCTAA) | 0.0198 |
| ATCAAAGCTTGGGTTCTAACCTGTTGCCT (site ATCAAAGCTAG) | 0.154 |
| ATCAAAGCTTGGGTTCTAACCTGTTGCCT (site ATCACAGCTAG) | 0.156 |
| ATCAAGCCTTGGGTTCTAACCTGTTGCAG (site ATCAAGCCTCT) | 1.83 |
| ATCAAGCCTTGGGTTCTAACCTGTTGCAG (site TATCCCTCTAG) | 0.0814 |
| ATCAAGCCTTGGGTTCTAACCTGTTGCTT (site ATCAAGCCTAA) | 0.102 |
| ATCAAGCCTTGGGTTCTAACCTGTTGCTT (site ATGAAGCCTAA) | 0.122 |
| ATCATAGCTTGGGTTCTAACCTGTTGCGC (site ATCATAGCTGC) | 0.504 |
| ATCATAGCTTGGGTTCTAACCTGTTGCGC (site CCATACCCTTA) | 0.0517 |
| ATCATTCCTTGGGTTCTAACCTGTTGCCT (site AACATACCTAG) | 0.237 |
| ATCATTCCTTGGGTTCTAACCTGTTGCCT (site ATCATTCCTAG) | 0.542 |
| ATCCTTACTTGGGTTCTAACCTGTTGCCT (site AACCTTACTAG) | 0.247 |
| ATCCTTACTTGGGTTCTAACCTGTTGCCT (site ACCCTTACTAG) | 0.136 |
| ATCCTTACTTGGGTTCTAACCTGTTGCCT (site AGCCTTACTAG) | 0.156 |
| ATCCTTACTTGGGTTCTAACCTGTTGCCT (site ATCCTTACTAG) | 1.16 |
| ATCGCTTCTTGGGTTCTAACCTGTTGCCT (site AACGCTTCTAG) | 0.246 |
| ATCGCTTCTTGGGTTCTAACCTGTTGCCT (site ACCGCTTCTAG) | 0.272 |
| ATCGCTTCTTGGGTTCTAACCTGTTGCCT (site AGCGCTTCTAG) | 0.432 |
| ATCGCTTCTTGGGTTCTAACCTGTTGCCT (site ATCGCTTCTAG) | 0.0338 |
| ATCGGACCTTGGGTTCTAACCTGTTGCCT (site ATCGGAACTAG) | 0.0754 |
| ATCGGACCTTGGGTTCTAACCTGTTGCCT (site ATCGGACCTAG) | 1.23 |
| ATCGGACCTTGGGTTCTAACCTGTTGCCT (site ATCGGAGCTAG) | 0.206 |
| ATCGGACCTTGGGTTCTAACCTGTTGCCT (site ATCGGATCTAG) | 0.107 |
| ATCGGAGCTTGGGTTCTAACCTGTTGCCT (site ATCGGAACTAG) | 0.196 |
| ATCGGAGCTTGGGTTCTAACCTGTTGCCT (site ATCGGACCTAG) | 0.0265 |

| Sequence | recombinant barcode read abundance (log10) |
| --- | --- |
| ATCGGAGCTTGGGTTCTAACCTGTTGCCT (site ATCGGAGCTAG) | 0.775 |
| ATCGGAGCTTGGGTTCTAACCTGTTGCCT (site ATCGGATCTAG) | 0.181 |
| ATCGTACCTTGGGTTCTAACCTGTTGCTG (site ATCCTACCTAA) | 0.167 |
| ATCGTACCTTGGGTTCTAACCTGTTGCTG (site ATCGTACCTCA) | 0.123 |
| ATCTGTTCTTGGGTTCTAACCTGTTGCCT (site ACCTGTGCTAG) | 0.108 |
| ATCTGTTCTTGGGTTCTAACCTGTTGCCT (site ATCTGTTCTAG) | 0.327 |
| ATCTTAGCTTGGGTTCTAACCTGTTGCCT (site ATCTTAACTAG) | 0.0917 |
| ATCTTAGCTTGGGTTCTAACCTGTTGCCT (site ATCTTACCTAG) | 0.141 |
| ATCTTAGCTTGGGTTCTAACCTGTTGCCT (site ATCTTAGCTAG) | 0.266 |
| ATCTTAGCTTGGGTTCTAACCTGTTGCCT (site ATCTTATCTAG) | 0.197 |
| ATCTTGTCTTGGGTTCTAACCTGTTGCCG (site ATCTTGTCTAG) | 0.264 |
| ATCTTGTCTTGGGTTCTAACCTGTTGCCG (site ATCTTGTCTCG) | 0.0848 |
| ATCTTGTCTTGGGTTCTAACCTGTTGCGG (site ATCTTGTCTCC) | 1.83 |
| ATCTTGTCTTGGGTTCTAACCTGTTGCGG (site CATGATACTAG) | 0.102 |
| ATGAATGCTTGGGTTCTAACCTGTTGCCT (site ATGAATGCTAG) | 1.78 |
| ATGAATGCTTGGGTTCTAACCTGTTGCCT (site ATGATTGCTAG) | 0.0173 |
| ATGACCTCTTGGGTTCTAACCTGTTGCCT (site ATGACCTCTAG) | 1.46 |
| ATGACCTCTTGGGTTCTAACCTGTTGCCT (site ATGCCCTCTAG) | 0.0297 |
| ATGACCTCTTGGGTTCTAACCTGTTGCCT (site ATGGCCTCTAG) | 0.46 |
| ATGACCTCTTGGGTTCTAACCTGTTGCCT (site ATGTCCTCTAG) | 0.0902 |
| ATGAGAACTTGGGTTCTAACCTGTTGCCG (site ATGAGAACTAG) | 1.58 |
| ATGAGAACTTGGGTTCTAACCTGTTGCCG (site ATGAGAACTCG) | 1.05 |
| ATGAGGACTTGGGTTCTAACCTGTTGCGT (site ATGAGGACTAC) | 2.45 |
| ATGAGGACTTGGGTTCTAACCTGTTGCGT (site CACCCCTCTCG) | 0.14 |
| ATGAGGCCTTGGGTTCTAACCTGTTGCCT (site ATGAGGCCTAG) | 0.858 |
